These results are taken from PubChem BioAssay (NCI).

Values joined by “and” are separate entries in the source; they are usually repeats but may differ in a detail not shown here. Identical values can stand only once.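 Five compound concentrations were applied to cells in 96-well plates for 48 hours; endpoints were derived by simple linear interpolation of the resulting dose-response curve. The concentration for 50% growth inhibition is given as GI50. TGI: total growth inhibition.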

Among the test systems are PC-3 prostate; MDA-N; CAKI-1 renal; NCI-H460 lung; IGROV1 ovarian; ACHN renal; HCT-116 colon; MDA-MB-435; 786-0 renal; T-47D breast; SK-MEL-2 melanoma.
What all share (assay): DTP human tumour cell line panel, 48 h

With `C[C@H](CC[C@@H](O)C(C)(C)O)[C@H]1CC[C@@]2(C)[C@@H]3CC=C4[C@@H](CC[C@H](OC5OC(CO)C(O)C(O)C5O)C4(C)C)[C@]3(C)C(=O)C[C@]12C` (stereo partly specified), the TGI (as a rule, the concentration at which net growth stops) is above 100 µM with PC-3 prostate; above 100 µM in the test with MDA-N; above 100 µM in the test with CAKI-1 renal; above 100 µM with NCI-H460 lung; 44.3 µM in the test on IGROV1 ovarian; 98.5 µM with ACHN renal. The TGI with HCT-116 colon is above 100 µM; with MDA-MB-435 it was above 100 µM; in the test on 786-0 renal, 70.5 µM; in the test on T-47D breast, above 100 µM; with SK-MEL-2 melanoma, 69.6 µM.

Consider `N#CC1N(C(=O)c2ccc(F)cc2)c2ccccc2N1C(=O)c1ccc(F)cc1`, for which the total growth inhibition concentration (TGI) in the test with PC-3 prostate, in the test with MDA-N, in the test on CAKI-1 renal, with NCI-H460 lung, in the test with IGROV1 ovarian and in the test on ACHN renal was above 100 µM in each case. Also, the concentration for total growth inhibition (TGI) in the test on HCT-116 colon, in the test on MDA-MB-435, with 786-0 renal, in the test with T-47D breast and with SK-MEL-2 melanoma was above 100 µM throughout.

Consider `O=C1Nc2ccccc2NC1C1OC(c2ccccc2)=CC1=O` (stereo unspecified), for which the TGI in the test with PC-3 prostate, in the test on MDA-N, in the test with CAKI-1 renal, in the test on NCI-H460 lung, in the test on IGROV1 ovarian and in the test on ACHN renal was above 100 µM in each case. Also, the TGI in the test on HCT-116 colon, in the test with MDA-MB-435, in the test on 786-0 renal, in the test on T-47D breast and in the test with SK-MEL-2 melanoma was above 100 µM in each case.

Regarding `Cc1cc(=O)c2c(O)c3c(O)cc(O)c4c5c(O)cc(O)c6c(O)c7c(=O)cc(C)c8c1c2c(c34)c(c65)c78`, the TGI in the test on PC-3 prostate, in the test with MDA-N, in the test with CAKI-1 renal, in the test on NCI-H460 lung, in the test on IGROV1 ovarian and in the test on ACHN renal was above 100 µM in each case. The TGI in the test on HCT-116 colon is > 100 µM and 64.2 µM; in the test with MDA-MB-435, above 100 µM; in the test with 786-0 renal, above 100 µM; with T-47D breast, above 100 µM; in the test on SK-MEL-2 melanoma, > 100 µM and 94 µM. In addition, the GI50 (usually the concentration giving 50% growth inhibition) was 33.2 µM with NCI-H460 lung; above 100 µM with IGROV1 ovarian; > 100 µM and 21.6 µM with HCT-116 colon; > 100 µM and 37.3 µM in the test on SK-MEL-2 melanoma.

For `C=C(C)CC1=C(C(=S)NCCO[Si](C)(C)C(C)(C)C)C(OCC)(OCC)C1=O`, the total growth inhibition concentration (TGI) was determined as 29.4 µM in the test with PC-3 prostate; 43.2 µM in the test with MDA-N; 31.9 µM in the test on CAKI-1 renal; 31.3 µM with IGROV1 ovarian; 33.8 µM in the test with ACHN renal; 50 µM in the test on HCT-116 colon. Also, the TGI with MDA-MB-435 came to 41.9 µM; in the test on 786-0 renal, 33.1 µM; in the test with T-47D breast, 35.4 µM; in the test with SK-MEL-2 melanoma, 34.4 µM.

Take `Sc1nnc(-c2ccccc2Nc2ccccc2-c2nnc(S)n2-c2ccccc2)n1-c1ccccc1`: the TGI in the test on PC-3 prostate was above 100 µM; in the test with MDA-N it was 85.3 µM; in the test with CAKI-1 renal it was above 100 µM; with NCI-H460 lung, above 100 µM; with IGROV1 ovarian, 42.2 µM; in the test with ACHN renal, above 100 µM. The TGI is above 100 µM in the test on HCT-116 colon; 53 µM in the test on MDA-MB-435; above 100 µM in the test on 786-0 renal; 88.2 µM in the test on T-47D breast; 84.2 µM in the test on SK-MEL-2 melanoma.

As for `COc1cc2c3c(cc(Cl)nc3c1OC)C(O)(CC(C)=O)C(=O)N2` (stereo unspecified), the TGI was above 56.4 µM in the test on PC-3 prostate; 31.1 µM in the test on MDA-N; 37.7 µM in the test on CAKI-1 renal; above 89.6 µM in the test on NCI-H460 lung; 36.6 µM with IGROV1 ovarian; above 54 µM in the test on ACHN renal. Besides, the TGI in the test on HCT-116 colon was 31.3 µM; in the test on MDA-MB-435, 30.9 µM; in the test on 786-0 renal, 30.9 µM; in the test with T-47D breast, above 100 µM; in the test on SK-MEL-2 melanoma, 45.7 µM.

As for `FC1CCN(C2(c3cccs3)CCCCC2)CC1`, the total growth inhibition concentration (TGI) in the test on PC-3 prostate, with MDA-N, in the test with CAKI-1 renal, in the test with NCI-H460 lung, in the test on IGROV1 ovarian and in the test on ACHN renal was above 100 µM in each case. Also, the total growth inhibition concentration (TGI) with HCT-116 colon, in the test with MDA-MB-435, in the test with 786-0 renal, in the test with T-47D breast and with SK-MEL-2 melanoma was above 100 µM in each case.

For `O=C(c1ccc(Cl)cc1)N(Cc1cccnc1)C(=S)N(Cc1cccnc1)C(=O)c1ccc(Cl)cc1`, the TGI in the test with PC-3 prostate is 90.3 µM; in the test on MDA-N, 56.6 µM; in the test on CAKI-1 renal it was above 100 µM; in the test with NCI-H460 lung it was above 100 µM; in the test with ACHN renal it was above 100 µM; with HCT-116 colon, 80.3 µM. Besides, the total growth inhibition concentration (TGI) with MDA-MB-435 is above 100 µM; with 786-0 renal, 48.2 µM; with T-47D breast, above 100 µM; with SK-MEL-2 melanoma, 49 µM.

In the case of `Cc1cc(S(=O)(=O)O)ccc1N=Nc1ccc(N=Nc2c(O)ccc3ccccc23)c(C)c1`, the total growth inhibition concentration (TGI) in the test with PC-3 prostate, in the test with MDA-N, with CAKI-1 renal, with IGROV1 ovarian, in the test with ACHN renal and in the test on HCT-116 colon was above 100 µM in each case. Besides, the TGI with MDA-MB-435 is above 100 µM; in the test on 786-0 renal it was 61.3 µM; with T-47D breast, above 100 µM; in the test on SK-MEL-2 melanoma, above 100 µM.

Regarding `Cc1ccc([N+](=O)[O-])cc1S(=O)(=O)Nc1ccc(C2=NN(c3ccc([N+](=O)[O-])cc3[N+](=O)[O-])C(c3ccccc3O)C2)cc1` (stereo unspecified), the concentration for total growth inhibition (TGI) with PC-3 prostate, in the test with MDA-N, with CAKI-1 renal, in the test on IGROV1 ovarian, in the test with ACHN renal and in the test with HCT-116 colon was above 100 µM in each case. For the same molecule, the TGI was above 100 µM with MDA-MB-435, above 100 µM in the test on 786-0 renal, above 100 µM in the test with T-47D breast and 59.4 µM in the test on SK-MEL-2 melanoma.

Consider `Cc1cccc2c(N)c3cccc(C(=O)NCC[N+](C)(C)Cc4sc(N5CCOCC5)nc4[N+](=O)[O-])c3nc12`, for which the TGI is 16.8 µM in the test with PC-3 prostate; 21.8 µM in the test with MDA-N; 4.64 µM in the test with CAKI-1 renal; above 100 µM in the test with IGROV1 ovarian; 2.28 µM in the test on ACHN renal; 20.6 µM in the test with HCT-116 colon. Further, the TGI was 35.2 µM in the test on MDA-MB-435, 6.24 µM in the test on 786-0 renal, above 100 µM in the test on T-47D breast and 45.3 µM in the test on SK-MEL-2 melanoma.
